Measured values published in article PMC12951430, “Modular Vinyl Phosphonamidates for Cysteine-Directed Protein Targeting” (Journal of the American Chemical Society, 2026).
Where “and” joins values, the source holds several entries; their conditions need not be identical. Identical values can stand only once. Entries after “also recorded” stand apart in the source; their conditions may differ. Like-named read-outs stand apart in the source and are kept apart here.

What was measured:
[1] = test system: RAMOS cells; test: Off-target reactivity in EGFR-negative RAMOS cells (gel-based); details: up to 10 μM, 1 h, 1 μM time course
Method: probe 5 in EGFR-negative RAMOS-cells. Cells (3x10^6/ml) were treated with the indicated probe-
concentration for 1 h @ 37 °C in RPMI –FCS. After the treatment, cells were processed according to the
Data is representative of three independent experiments. a) Fluorescent gel
of RAMOS-cells treated with the indicated probe-concentration. b) Relative fluorescent intensity of
three independent experiments c) Fluorescent gel of RAMOS-cells treated 1 µM probe 5 or 7 for the
indicated time. b) Relative fluorescent intensity of three independent experiments (quantitative results
were normalized to the most intense band in each replicate)
For BTK-probes, RAMOS-cells were seeded at 3x10^6 cells/ml (RMPI w/o FCS) and incubated with the indicated compound concentration (final conc. of 1% DM SO) at 37 °C. After the incubation, cells were harvested by centrifugation, washed twice with ice cold PBS and lysed in ice -cold RIPA-buffer containing cOmpleteTM protease inhibitor (Roche), 50 mM iodo acetamide (I1149, Sigma Aldrich) and
Following a 10 min incubation at 37 °C lysates were f urther processed as described above.

[2] = test system: A431 cells; test: Proteomic pulldown with EGFR probes in A431 cells (LFQ); format: cell-based, human; details: for # Labelled Proteins (total number of significantly enriched proteins) / off-targets enriched: 10 μM probe
Method: To gain a more detailed understanding of which proteins are labeled by the corresponding probe, we performed a proteomic pulldown experiment. […] . […] Additionally, we also wanted to investigate proteomic engagement under more extreme conditions, using a 10 μM probe concentration. […] Even though both probes enriched a large portion of proteins, EGFR was still among the most prominent hits for the phosphonamidate probe and only to a lesser extent for 5 (Figure S11). Overall, we observed a certain degree of complementarity between the off-targets obtained from the corresponding probes (Figures j and S12). […] Most prominently, selenoprotein SELENOT and solute carrier protein SLC25A32 were only enriched by phosphonamidate probe 7. On the other hand, several proteins like the cysteine proteases ATG4B, CTSB, and BOLA2 were exclusively enriched by DMAC probe 5.
Figure S 10: Volcano blots obtained from label free quantification of the proteins from streptavidin pulldowns performed with 1 µM probe 5 or 7 (in comparison to the DMSO treated sample). Proteins were identified and quantified and blotted as described in 4.8: Variance stabilization and Perseus-type […]
At the tested concentration, both probes solely enrich
EGFR. Data was obtained from 4 independent replicates.
Figure S 11: Volcano blots obtained from label free quantification of the proteins from streptavidin pulldowns performed with 10 µM probe 5 or 7 (in comparison to the DMSO treated sample). Proteins […]
imputation were enabled. Proteins surpassing a log 2 fold-change of 2.5 and a -log10 adjusted p-value […]
proteins can be found in Supplementary Table 1. Data was obtained from 4 independent replicates. […]
4.8 In-cell protein labeling and s ample preparation for proteomic pull-down Cells were cultured, treated and lysed as described in 4.4. Lysates (approx. 200 μg of protein each) […]
Afterwards, the samples we re processed according to a procedure published by Becker et al. 10: A total of 50 μl of mixed hydrophobic and hydrophilic carboxylate -coated magnetic beads (1:1, prewashed with PBS; Seramag™, Cytavia) was added to the click reaction mixture followed by 600 μl of absolute ethanol to precipitate the proteins. Beads were washed thrice with of 80% ethanol and proteins were eluted by two sequential washes of 0.2% SDS in PBS. The eluted proteins were directly transferred onto 30 μl of streptavidin-coated magnetic beads (prewashed with 0.2% SDS in PBS; New England Biolabs) and incubated on a shaker for 1 h at r.t. Streptavidin-beads were washed thrice with 8 M urea, PBS pH 7.4 and MilliQ water. Washed beads were resuspended in 100 mM ABC buffer, followed by […]
trypsinized overnight at 37 °C (1.5 µg/sample, Promega). The supernatant was removed, acidified to 1% TFA, centrifuged at 10‘000 rcf for 5 minutes and stored at -20 °C until measurement. Before MS/MS analysis a quality-control run was conducted on a Waters XEVO G2-XS QTof instrument to ensure […]
Samples were diluted based on the QC-runs to ensure equal loading. LC-MS/MS analysis was performed using an UltiMate 3000 RSLC nano LC system coupled on -line to an Orbitrap Fusion mass spectrometer (Thermo Fisher Scientific). For sample loading a PepMap C -18 trap-column (Thermo Fischer Scientific) of 0.075 mm ID x 50 mm length, 3 μm particle size and 100 Å pore size was used. The loading mobile phase A contained 1% acetonitrile and 0.05% TFA acid in water, and mobile phase B 0.05% TFA acid in acetonitrile. Reversed-phase separation was performed using a 50 cm analytical column (in-house packed with Poroshell 120 EC-C18, 2.7μm, Agilent Technologies) with mobile phase A contained 0.1% formic acid in water, and mobile phase B 0.1% formic acid in acetonitrile using a 93 […]
ions with charge states 2-4 were isolated with a mass selecting quadrupole (isolation window 1.6 m/z)

[3] = molecular target: EGFR in A431 cells (Homo sapiens, UniProt P00533); test: Gel-based ABPP of EGFR probes in A431 cells; details: for target selectivity in time-course labeling: 1 µM, up to 6 h; for in-cell EGFR labeling, competition with excess Afatinib: pretreatment Afatinib 5 μM
Method: With this probe in hand, we treated wild-type EGFR overexpressing A431 cells at a probe concentration of 1 μM for 1 h at 37 °C, followed by lysis and fluorescent labeling via CuAAC.
For EGFR -probes, A431 -cells were seeded at 60’000 cells/well in a 6-well plate (Greiner Bio-One) and incubated until 80 -100% confluencey. Before treatment , cells were washed twice with PBS. Cells were incubated with the indicated compound concentration (final conc. of 1% DMSO in RPMI -FCS ) at 37 °C.
After the incubati on, cells were washed twice with ice cold PBS and lysed in ice -cold RIPA -buffer containing cOmplete TM protease inhibitor (Roche), 50 mM iodo acetamide (I1149, Sigma Aldrich) and
Following a 10 min incubation at 37 °C lysat es were transferred
TBTA, 0.5 mM TCEP, 0.05 mM fluorescein-N3) in a shaker (800 rpm, 37 °C) for 45 minutes. Afterwards, proteins were precipitated with the 4-fold volume of acetonitrile and cetrifuged (14’00 rcf, 5 min). The solvent was removed and precipitates were resuspended in 80% EtOH followed by another round of centrifugation (10’000 rcf, 5 min). The pellets were aspirated and left to dry on air for 5-10 minutes.
and bands were quantified in ImageLab 6.1.

[4] = molecular target: T1, BTK in RAMOS cells (Homo sapiens, UniProt Q06187); test: Gel-based ABPP of BTK probes in RAMOS cells; format: cell-based; details: 250 nM, 1 h, 37 °C
T1 construct: we performed a gel-based ABPP experiment using RAMOS cells; host or cells: RAMOS
Source text: Motivated by these promising results, we wanted to extend the scope toward a different class of kinase inhibitors. […] Inspired by these findings, we synthesized a series of VPA probes based on the pyrazolo[3,4-d]-pyrimidine scaffold (8–11, Figure a), each harboring a different aromatic linker. To compare their reactivity and selectivity for BTK, we performed a gel-based ABPP experiment using RAMOS cells. […] In contrast, for all four PA probes, only one intense band was obtained at the same height as BTK. […] Analogously to Afatinib-derived probe 4a, we wanted to investigate whether one stereoisomer might show preferential binding.
(b) Comparison of the in-cell reactivity profiles of BTK probes 8–12 in RAMOS cells (250 nM, 1 h, 37 °C) analyzed by gel-based ABPP. […]
Fluorescence was monitored over 4 h at 30 °C every 60 seconds (λex = 360 nm and λem = 492 nm).
Background‑subtracted fluorescence intensity (RFU) was plotted against time (s), and data were fitted to a single‑phase association model: […]
4.7 In-cell protein labeling and in -gel fluorescence analysis […]
Afterwards, the precipitate was redissolved in 40 µl 8 M urea (100 mM Tris, pH 8), 8 µl Laemmli buffer were added and the samples were denatured at 95 °C for 5 minutes. Proteins were seperated via SDS - PAGE (12% or 4-20% acrylamide gels) and analyzed on a Gel Doc XR+ (Bio-Rad, USA). […]

[5] = test system: RAMOS cell lysate; test: Gel-based ABPP of alkyne probes in RAMOS cell lysate; design: species or system human; details: RAMOS cell lysate 1 mg/mL, 10 and 100 μM, 1 h
Source text: Greater reactivity yields a higher isoDTB ratio. Ratios ≥ 4 (dashed line) are considered liganded.
Nonetheless, since the formation of the glutathione conjugate was clearly notable, we wanted to investigate the reactivity of 1a with a more diverse set of thiols. Therefore, we examined all three electrophilic groups for their ability to label cysteines in whole-cell lysates. First, alkyne-functionalized reagents (1b–3b, for structures, see Scheme S1) were synthesized to allow for gel-based activity-based protein profiling (ABPP). […] Since all compounds share the same scaffold and differ only by their reactive functional group, we anticipate that any differences in labeling intensity should primarily stem from differences in electrophilicity. […] CAPA reporter cells were prepared by transiently transfecting HEK293T with a plasmid enabling the cytoplasmic expression of the Halotag protein, and concentration-dependent cell permeability was assessed. […]
Cells were harvested by centrifugation, washed trice with ice cold PBS (Ph 7.4) and stored at -70°C until lysis. […] Lysates were cleared by centrifugation (15’000 rcf) and the proteinconcentration was determined via BCA assay (Pierce BCA Protein Assay Kit, Thermo Fisher Scientific) according to the vendors instructions. […]

[6] = molecular target: T2, wt EGFR (Homo sapiens, UniProt P00533); test: biochemical; format: biochemical
T2 construct: purchased Sino Biological

[7] = molecular target: wild-type EGFR (Homo sapiens, UniProt P00533); test: biochemical; details: in vitro kinase assay
wild-type EGFR, sequence (P00533 25-1210): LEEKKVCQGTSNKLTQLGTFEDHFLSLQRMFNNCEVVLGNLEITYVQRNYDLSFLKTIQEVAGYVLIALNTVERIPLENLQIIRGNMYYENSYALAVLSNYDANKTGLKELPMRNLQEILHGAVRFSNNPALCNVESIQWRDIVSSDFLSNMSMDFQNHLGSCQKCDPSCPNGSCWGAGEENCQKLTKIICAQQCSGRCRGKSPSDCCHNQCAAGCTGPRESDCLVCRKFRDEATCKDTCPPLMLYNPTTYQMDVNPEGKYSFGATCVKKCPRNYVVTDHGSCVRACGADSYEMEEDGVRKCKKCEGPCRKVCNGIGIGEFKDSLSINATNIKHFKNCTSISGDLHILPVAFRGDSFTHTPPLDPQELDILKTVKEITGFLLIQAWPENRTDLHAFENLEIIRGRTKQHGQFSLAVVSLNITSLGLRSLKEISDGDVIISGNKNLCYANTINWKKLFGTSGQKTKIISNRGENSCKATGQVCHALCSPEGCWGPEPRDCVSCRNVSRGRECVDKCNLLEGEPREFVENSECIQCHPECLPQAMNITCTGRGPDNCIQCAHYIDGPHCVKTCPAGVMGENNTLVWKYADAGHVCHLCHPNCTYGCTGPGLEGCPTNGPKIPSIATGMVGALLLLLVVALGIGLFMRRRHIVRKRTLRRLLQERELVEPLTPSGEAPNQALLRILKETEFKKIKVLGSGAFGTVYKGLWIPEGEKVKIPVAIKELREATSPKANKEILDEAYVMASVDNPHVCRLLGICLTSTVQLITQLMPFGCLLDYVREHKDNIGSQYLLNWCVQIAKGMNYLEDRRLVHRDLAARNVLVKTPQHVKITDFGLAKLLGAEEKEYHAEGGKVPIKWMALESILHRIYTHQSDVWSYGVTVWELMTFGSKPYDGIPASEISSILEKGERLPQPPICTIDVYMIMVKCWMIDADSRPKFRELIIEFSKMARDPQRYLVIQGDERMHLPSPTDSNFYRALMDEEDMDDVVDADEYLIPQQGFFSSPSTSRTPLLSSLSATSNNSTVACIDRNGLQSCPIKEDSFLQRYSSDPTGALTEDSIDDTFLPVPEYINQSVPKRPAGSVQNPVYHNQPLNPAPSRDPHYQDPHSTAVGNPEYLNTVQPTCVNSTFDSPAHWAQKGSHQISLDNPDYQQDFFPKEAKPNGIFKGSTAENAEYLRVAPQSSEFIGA

T2 sequence (P00533 25-1210): as above
EGFR in A431 cells, sequence (P00533 25-1210): as above
T1 sequence (Q06187 whole entry): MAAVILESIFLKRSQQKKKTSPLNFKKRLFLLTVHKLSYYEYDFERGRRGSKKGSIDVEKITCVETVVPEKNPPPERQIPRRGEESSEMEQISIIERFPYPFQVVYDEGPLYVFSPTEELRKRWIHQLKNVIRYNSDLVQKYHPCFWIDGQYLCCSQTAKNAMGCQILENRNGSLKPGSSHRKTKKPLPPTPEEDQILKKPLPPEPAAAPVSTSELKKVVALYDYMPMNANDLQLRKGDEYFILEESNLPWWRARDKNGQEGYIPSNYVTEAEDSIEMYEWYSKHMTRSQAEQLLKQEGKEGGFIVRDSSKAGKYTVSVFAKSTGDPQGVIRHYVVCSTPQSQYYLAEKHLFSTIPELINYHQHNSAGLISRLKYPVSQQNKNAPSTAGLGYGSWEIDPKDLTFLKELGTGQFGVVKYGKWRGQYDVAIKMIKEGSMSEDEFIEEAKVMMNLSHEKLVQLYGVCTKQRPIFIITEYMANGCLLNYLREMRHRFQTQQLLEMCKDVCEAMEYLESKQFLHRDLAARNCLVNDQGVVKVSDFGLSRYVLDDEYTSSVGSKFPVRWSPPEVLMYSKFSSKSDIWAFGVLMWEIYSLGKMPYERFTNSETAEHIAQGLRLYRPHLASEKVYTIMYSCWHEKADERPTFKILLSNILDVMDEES

Compound | off-target labeling in EGFR-negative cells [1] | # Labelled Proteins (total number of significantly enriched proteins) ([2]; A431 cells) | off-targets enriched ([2]; A431 cells) | target selectivity in time-course labeling [3] | in-cell EGFR labeling, competition with excess Afatinib ([3]; 1 h 37 °C) | further results
C#CCOc1cc2ncnc(Nc3ccc(F)c(Cl)c3)c2cc1NC(=O)/C=C/CN(C)C [compound 5, reference compound] | significant fluorescent labeling of off-targets | 327 | 118 | significantly higher off-target labeling |  | significantly enriched proteins ([2]; A431 cells, 1 μM probe, 2 h 37 °C, log2-fold change >2.5, adjusted p <0.01): solely enrich
C#CCCOP(=O)(C=C)Nc1ccccc1Cn1nc(-c2ccc(Oc3ccccc3)cc2)c2c(N)ncnc21 (stereo not shown) [compound 9] |  |  |  |  |  | in-cell reactivity profile (gel bands) [4]: most intense labeling
C#CCOc1cc2ncnc(Nc3ccc(F)c(Cl)c3)c2cc1NP(=O)(C=C)OCC (stereo not shown) [compound 7] | almost no labeling | 119 | 327 | did not decrease | EGFR-selective labeling | significantly enriched proteins [2]: solely enrich; also recorded: EGFR is the only protein significantly enriched; lowest concentration with detectable labeling signal ([3]; 1 h 37 °C): ≤ 5 nM
C#Cc1ccc(NC(=O)CCl)cc1 [3b] |  |  |  |  |  | fluorescent labeling signal [5]: most intense fluorescent signal
C#CCCOP(=O)(C=C)Nc1cc2c(Nc3ccc(F)c(Cl)c3)ncnc2cc1O[C@H]1CCOC1 (stereo partly shown) [4c] |  |  |  |  | selective covalent engagement of EGFR | 
C=CP(=O)(Nc1cc2c(Nc3ccc(F)c(Cl)c3)ncnc2cc1O[C@H]1CCOC1)OCC (stereo partly shown) [4a] |  |  |  |  |  | Ki ([6]; 4a 2–50 nM): 2.43 nM; k inact ([6]; 4a 2–50 nM): 0.24 × 10^–3 s^–1; k inact/K I ratio ([6]; direct comparison): 97 × 10^3 M^–1 s^–1; IC50 [7]: 0.68 nM and 0.67 nM
